Blank lines part the entries; values can stand above or below the molecule they belong to.
Legend:
hOCTN2 [1] = target: T1, hOCTN2 (Homo sapiens, UniProt O76082); test: hOCTN2 direct uptake assay (LC-MS-MS, CHO-TREx-hOCTN2 cells); format: cell-based; parameters: expressed in transfected cells; host or cells: CHO-TREx cells (CHO-TREx-OCTN2 inducible cell line); conditions: CHO-TREx-hOCTN2 cells induced to express hOCTN2, specific uptake
T1 sequence (O76082 1-557): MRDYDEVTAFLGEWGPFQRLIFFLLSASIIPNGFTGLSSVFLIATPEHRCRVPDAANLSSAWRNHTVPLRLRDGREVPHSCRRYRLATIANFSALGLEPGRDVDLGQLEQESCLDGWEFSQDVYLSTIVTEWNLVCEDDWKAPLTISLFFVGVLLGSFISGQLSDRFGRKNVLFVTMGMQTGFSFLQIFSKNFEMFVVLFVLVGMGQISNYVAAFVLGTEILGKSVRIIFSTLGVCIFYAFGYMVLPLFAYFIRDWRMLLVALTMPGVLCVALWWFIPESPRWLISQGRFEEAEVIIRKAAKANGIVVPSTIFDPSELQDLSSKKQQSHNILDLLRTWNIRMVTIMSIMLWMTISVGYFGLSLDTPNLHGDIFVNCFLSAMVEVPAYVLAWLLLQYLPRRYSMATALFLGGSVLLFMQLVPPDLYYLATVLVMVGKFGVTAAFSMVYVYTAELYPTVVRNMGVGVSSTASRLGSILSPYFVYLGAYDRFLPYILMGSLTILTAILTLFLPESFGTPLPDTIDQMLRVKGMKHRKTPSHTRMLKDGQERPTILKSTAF
Experimental: (§1) A modified direct uptake assay was developed to determine the ability of test compounds to be transported into CHO-TREx cells induced to over-express hOCTN2. Four concentrations (bracketing the affinity as measured by competition assays) per compound were routinely tested. Non-specific uptake was determined by measuring the uptake into cells not induced to express the transporter (“no tet”).
(§2) The direct uptake assays were prepared as follows: Compounds were prepared for assay by diluting a 100 mM stock concentration (in DMSO or water, depending on compound solubility) to the appropriate working concentration. Typically, four concentrations bracketing the IC50 were tested. The highest test concentration for each compound was made in an Eppendorf tube and diluted into HBSS. The samples were robustly vortexed and centrifuged for 10 minutes at 13,200 rpm to spin down any precipitate. The supernatant from these samples (˜150 μl/well) was carefully removed and placed into six wells of row A (cmpd 1: A1-6; cmpd 2: A7-12) or row E (cmpd 3: E1-6; cmpd 4: E7-12) of a 96-well polypropylene “compound” plate. Three additional 2-fold dilutions were made in the subsequent rows (B-D or […]) in HBSS. […]

hOCTN2 [2] = target: T1, hOCTN2; test: hOCTN2 competition uptake assay (3H-carnitine uptake into CHO-TREx-hOCTN2 cells); format: cell-based; parameters: expressed in transfected cells; host or cells: CHO-TREx cells (CHO-TREx-OCTN2 inducible cell line)
Experimental: A modified competition uptake assay was developed to determine the ability of a test compound(s) to inhibit the uptake of radiolabeled substrates into CHO-TREx-hOCTN2 cells induced to over-express hOCTN2. The results are stated as affinities (IC50).
The competition uptake assay was prepared as follows: Compounds were prepared for assay by diluting a 100 mM stock concentration (in DMSO) to the appropriate working concentration. Typically, seven-point dose response curves were prepared starting at a final assay concentration of 1 mM and carrying out three-fold dilutions. […]
Scintillation fluid (200 μl) (Optiphase Supermix (Perkin Elmer) was added to each well, and the plate was covered with a 96-well adhesive plate cover and placed on a shaker for 10 minutes. The plates were counted on a 96-well plate scintillation counter for 60 sec/well. The data were analyzed using a sigmoidal dose response curve-fitting program (Prism, GraphPad, Inc, San Diego, Calif.; equation: one-site competition).
FIG. 7 depicts the results of a competition experiment using CHO-TREx-OCTN2 cells. ^3H-carnitine was used as the substrate and unlabeled carnitine was used as the competitor. […] Non-specific uptake was determined by measuring the uptake into cells not induced to express the transporter (“no tet”). […]

hOCTN2 [3] = target: T1, hOCTN2; test: Oocyte uptake assay, oocytes injected with OCTN2 cRNA; format: cell-based; parameters: expressed in transfected cells; host or cells: Xenopus oocytes injected with OCTN2 cRNA; conditions: Xenopus oocytes
PgP = target: T2, PgP (Homo sapiens, UniProt P08183); test: Transwell monolayer efflux assay, MDCK cells with TREx-PgP; format: cell-based
T2 construct: expressed in transfected cells; host or cells: MDCK cells
T2 sequence (P08183 whole entry): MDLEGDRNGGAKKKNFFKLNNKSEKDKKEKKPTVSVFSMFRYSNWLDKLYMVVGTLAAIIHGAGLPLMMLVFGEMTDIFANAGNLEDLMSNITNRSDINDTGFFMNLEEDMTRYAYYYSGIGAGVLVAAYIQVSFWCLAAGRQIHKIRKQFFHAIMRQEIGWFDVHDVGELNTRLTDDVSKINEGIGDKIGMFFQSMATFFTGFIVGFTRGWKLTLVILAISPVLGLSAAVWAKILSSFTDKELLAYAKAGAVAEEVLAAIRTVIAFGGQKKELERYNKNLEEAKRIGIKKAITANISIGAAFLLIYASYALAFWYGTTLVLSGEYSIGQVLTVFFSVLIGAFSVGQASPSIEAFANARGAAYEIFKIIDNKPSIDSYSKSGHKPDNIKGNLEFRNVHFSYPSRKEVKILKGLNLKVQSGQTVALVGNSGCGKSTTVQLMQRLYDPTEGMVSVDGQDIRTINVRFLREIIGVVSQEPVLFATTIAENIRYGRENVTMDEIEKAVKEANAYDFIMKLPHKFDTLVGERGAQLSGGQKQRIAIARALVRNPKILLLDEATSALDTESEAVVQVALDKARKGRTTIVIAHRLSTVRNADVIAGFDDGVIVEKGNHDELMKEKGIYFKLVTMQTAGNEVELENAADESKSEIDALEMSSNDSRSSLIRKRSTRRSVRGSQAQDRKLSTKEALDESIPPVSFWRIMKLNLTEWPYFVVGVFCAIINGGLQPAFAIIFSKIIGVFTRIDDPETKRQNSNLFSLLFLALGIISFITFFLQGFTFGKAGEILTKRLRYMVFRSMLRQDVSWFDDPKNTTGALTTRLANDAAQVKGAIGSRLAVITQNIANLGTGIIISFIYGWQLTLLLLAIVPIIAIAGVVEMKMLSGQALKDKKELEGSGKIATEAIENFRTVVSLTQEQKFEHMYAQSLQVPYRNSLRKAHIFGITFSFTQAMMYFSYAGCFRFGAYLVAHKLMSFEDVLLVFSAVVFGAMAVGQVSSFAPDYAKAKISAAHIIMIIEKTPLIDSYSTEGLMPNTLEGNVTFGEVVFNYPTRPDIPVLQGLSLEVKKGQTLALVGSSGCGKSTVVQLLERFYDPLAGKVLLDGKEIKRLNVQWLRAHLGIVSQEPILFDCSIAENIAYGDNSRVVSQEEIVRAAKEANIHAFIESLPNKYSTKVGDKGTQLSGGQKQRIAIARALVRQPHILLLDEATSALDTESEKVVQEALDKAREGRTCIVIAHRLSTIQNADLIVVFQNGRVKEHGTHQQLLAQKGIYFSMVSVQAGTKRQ
Experimental: Transwell monolayer efflux assays can be performed by transfecting MDCK cells with the tetracycline-inducible TREx-PgP expression vector. The cells optionally can be transfected with a nucleic acid encoding the transporter of interest. The transfected cells are seeded on polycarbonate filter membranes in transwell dishes and grown for 3-5 days, yielding a polarized monolayer with tight junctions between cells.

[4] = substrate: C[N+](C)(C)CC(O)CC(=O)[O-]; test: hOCTN2 direct uptake assay (LC-MS-MS, CHO-TREx-hOCTN2 cells); format: cell-based, human; conditions: other: CHO-TREx-hOCTN2 cells induced to express hOCTN2, specific uptake
Experimental: as §1, §2

[5] = 2.5 nM 3H-vinblastine, in the presence of 250 μM verapamil

Direct Uptake Vmax (hOCTN2 [1]): 7.7 pmol/min/well
IC50 (hOCTN2 [2]; inhibition of 3H-carnitine uptake, CHO-TREx-hOCTN2 cells induced to express hOCTN2): 6.3 µM
Molecule: C[N+](C)(C)CC(O)CC(=O)[O-] (centres unmarked) [Carnitine, carnitine]
uptake of labeled carnitine with increasing unlabeled carnitine (hOCTN2 [2]; cells induced to express OCTN2, unlabeled carnitine as competitor): uptake of labeled carnitine decreased as the concentration of unlabeled carnitine increased
3H-carnitine uptake in OCTN2-expressing oocytes versus noninjected controls (hOCTN2 [3]): higher levels of ^3H-carnitine uptake than noninjected controls

apical to basolateral transport (PgP; [5]): strongly increased
basolateral to apical transport (PgP; [5]): strongly decreased
PgP substrate status (PgP; concluded from transport with and without verapamil): substrate of PgP
Molecule: CC[C@]1(O)C[C@@H]2CN(CCc3c([nH]c4ccccc34)[C@@](C(=O)OC)(c3cc4c(cc3OC)N(C)[C@H]3[C@@](O)(C(=O)OC)[C@H](OC(C)=O)[C@]5(CC)C=CCN6CC[C@]43[C@@H]65)C2)C1 [^3H-vinblastine, vinblastine]

B1: hOCTN2 (Homo sapiens) (protein)
chain: T1 sequence (O76082 1-557)
notes: expressed in transfected cells; host or cells: CHO-TREx cells (CHO-TREx-OCTN2 inducible cell line)
Km [4]: 300 µM
